Experimental data from ChEMBL document CHEMBL3352783, “A highly water soluble benzimidazole derivative useful for the treatment of fasciolosis” (Bioorg Med Chem Lett, 2014).
In brackets after ≈: the same amount, converted by molar mass.

How the values were obtained:
[1] = Aqueous stability of the compound assessed as time duration showing >95% compound stability at pH 7 and room temperature by UV-HPLC; assay type: physicochemical; conditions: buffer
Fasciola hepatica [2] = assay: Antiparasitic activity against 10 week old Fasciola hepatica infected in sheep assessed as reduction in worm burden at 15 mg/kg, po; assay type: functional
Fasciola hepatica [3] = assay: Antiparasitic activity against Fasciola hepatica assessed as mortality at 50 mg/L after 24 hrs relative to untreated control; assay type: functional
Fasciola hepatica [4] = assay: Antiparasitic activity against Fasciola hepatica assessed as mortality at 10 mg/L after 24 hrs relative to untreated control; assay type: functional
Fasciola hepatica [5] = assay: Antiparasitic activity against Fasciola hepatica assessed as mortality at 50 mg/L after 48 hrs relative to untreated control; assay type: functional
Fasciola hepatica [6] = assay: Antiparasitic activity against Fasciola hepatica assessed as mortality at 10 mg/L after 48 hrs relative to untreated control; assay type: functional
Fasciola hepatica [7] = assay: Antiparasitic activity against Fasciola hepatica assessed as mortality at 50 mg/L after 72 hrs relative to untreated control; assay type: functional
Fasciola hepatica [8] = assay: Antiparasitic activity against Fasciola hepatica assessed as mortality at 10 mg/L after 72 hrs relative to untreated control; assay type: functional
Fasciola hepatica [9] = assay: Antiparasitic activity against Fasciola hepatica infected in sheep assessed as reduction of eggs at 12 mg/kg, po; assay type: functional
Fasciola hepatica [10] = assay: Antiparasitic activity against Fasciola hepatica infected in sheep assessed as reduction of eggs at 4 mg/kg, intramuscular; assay type: functional
Fasciola hepatica [11] = assay: Antiparasitic activity against Fasciola hepatica infected in sheep assessed as reduction of eggs at 4 mg/kg, sc; assay type: functional; conditions: route subcutaneous
Fasciola hepatica [12] = assay: Antiparasitic activity against Fasciola hepatica infected in sheep assessed as fluke reduction at 12 mg/kg, po; assay type: functional
Fasciola hepatica [13] = assay: Antiparasitic activity against Fasciola hepatica infected in sheep assessed as fluke reduction at 4 mg/kg, intramuscular; assay type: functional
Fasciola hepatica [14] = assay: Antiparasitic activity against Fasciola hepatica infected in sheep assessed as fluke reduction at 4 mg/kg, sc; assay type: functional; conditions: route subcutaneous
[15] = Aqueous solubility of the compound at pH 7 and 25 degC; assay type: physicochemical

Compound | Stability [1] | Efficacy (Fasciola hepatica [2]) | Efficacy (Fasciola hepatica [3]) | Efficacy (Fasciola hepatica [4]) | Efficacy (Fasciola hepatica [5]) | Efficacy (Fasciola hepatica [6]) | Efficacy (Fasciola hepatica [7]) | Efficacy (Fasciola hepatica [8]) | Efficacy (Fasciola hepatica [9]) | Efficacy (Fasciola hepatica [10]) | Efficacy (Fasciola hepatica [11]) | Efficacy (Fasciola hepatica [12]) | Efficacy (Fasciola hepatica [13]) | Efficacy (Fasciola hepatica [14]) | solubility [15]
CSc1nc2cc(Oc3cccc4ccccc34)c(Cl)cc2[nH]1 | > 26 h | 86.9% | – | – | – | – | – | – | – | – | – | – | – | – | –
CSc1nc2cc(Oc3cccc4ccccc34)c(Cl)cc2n1COP(=O)([O-])[O-].[Na+].[Na+] | > 26 h | – | 100% | 95.8% | 100% | 95.8% | 100% | 100% | 95.1% | 44.9% | 65.8% | 83.3% | 87.8% | 61.4% | –
CSc1nc2cc(Cl)c(Oc3cccc(Cl)c3Cl)cc2[nH]1 [TRICLABENDAZOLE] | > 24 h | – | 100% | 100% | 100% | 100% | 100% | 100% | – | – | – | – | – | – | 0.2 µg/mL (≈ 0.556 µM)
